Source: patent US20080057529A1, “Method for Identifying Histone Deacetylase Inhibitors” (priority 2003, published 2008)

Key:
HeLa cells = test: Cell death in transiently transfected HeLa cells; type: cell-based, human; conditions: after 6 hours; TSA 300 nM, Apicidin 1 μM; transfected HeLa cells
Description: The p21m-BLA reporter plasmid was tested in transient transfection experiments of HeLa cells to evaluate the responsiveness of the minimal p21 promoter and the Bla reporter system to known HDAC inhibitors. In the first two transfection experiments, HeLa cells were transfected with 1 or 2 μg of Bla reporter plasmid containing either p21 minimal promoter (p21m-BLA) or CMV promoter (CMV-BLA) and 0.1 μg of pCMV-Luc or pRSV-Luc control plasmids. Different DNA-FUGENE transfection reagent ratios were tested (FUGENE is available from Roche Applied Science, Indianapolis, Ind.). […] Data are summarized below in Tables 1 and 2.
The percentage of β-lactamase-positive cells increased with time independent of the presence of HDAC inhibitors and was constantly higher with p21m-BLA than with pCMV-BLA.

p21 minimal promoter = test: Transient transfection of HeLa cells with p21m-SEAP reporter plasmid, SEAP activity; type: cell-based, human; conditions: Apicidin 1 μM; for Fold Induct. (SEAP norm) / Fold induct. (SEAP) / SEAP (fold ind) / SEAP norm.-bckg/RLU norm (fold ind): vs DMSO
Description: To determine whether the p21 minimal promoter was responsive to HDAC inhibitors, a reporter plasmid containing the secreted alkaline phosphatase gene (SEAP) operably linked to the p21 minimal promoter (−182 through +25), pcDNA3-21m-SEAP, was tested in transient transfection experiments of HeLa cells. […] All data summarized in Tables 4 through 7 were obtained by normalizing the total amount of transfected DNA to 2.1 μg using a promoterless plasmid.

[1] = Table 5, TSA 300 nM, P21m-SEAP 0.1 μg DNA
[2] = Table 5, TSA 300 nM, P21m-SEAP 0.2 μg DNA
[3] = Table 5, TSA 300 nM, P21m-SEAP 0.5 μg DNA
[4] = Table 5, TSA 300 nM, P21m-SEAP 1 μg DNA

## CCC(=O)CCCCC[C@@H]1NC(=O)[C@H]2CCCCN2C(=O)[C@H]([C@@H](C)CC)NC(=O)[C@H](Cc2cn(OC)c3ccccc23)NC1=O [Apicidin]
HeLa cells
  Cell-death: not visible
p21 minimal promoter; TSA 300 nM, p21m-SEAP promoter titration in HeLa
  induction of SEAP (maximum): up to 20 fold
p21 minimal promoter; Table 4, P21m-SEAP 0 μg DNA (total DNA 2.1 μg)
  SEAP (10 min): 11366
p21 minimal promoter; Table 4, P21m-SEAP 0 μg DNA
  SEAP activity normalised to total protein: 5683
  Fold Induct. (SEAP norm): 4.901 fold
  Fold induct. (SEAP): 3.5 fold
p21 minimal promoter; Table 4, P21m-SEAP 0.1 μg DNA (total DNA 2.1 μg)
  SEAP (10 min): 41278
p21 minimal promoter; Table 4, P21m-SEAP 0.1 μg DNA
  SEAP activity normalised to total protein: 27518.67
  Fold Induct. (SEAP norm): 7.691 fold
  Fold induct. (SEAP): 4.8 fold
p21 minimal promoter; Table 4, P21m-SEAP 0.2 μg DNA (total DNA 2.1 μg)
  SEAP (10 min): 33449
p21 minimal promoter; Table 4, P21m-SEAP 0.2 μg DNA
  SEAP activity normalised to total protein: 16724.5
  Fold Induct. (SEAP norm): 14.9372 fold
  Fold induct. (SEAP): 10.3 fold
p21 minimal promoter; Table 4, P21m-SEAP 0.5 μg DNA (total DNA 2.1 μg)
  SEAP (10 min): 81729
p21 minimal promoter; Table 4, P21m-SEAP 0.5 μg DNA
  SEAP activity normalised to total protein: 54486
  Fold Induct. (SEAP norm): 19.2643 fold
  Fold induct. (SEAP): 9.6 fold
p21 minimal promoter; Table 4, P21m-SEAP 1 μg DNA (total DNA 2.1 μg)
  SEAP (10 min): 85405
p21 minimal promoter; Table 4, P21m-SEAP 1 μg DNA
  SEAP activity normalised to total protein: 61003.57
  Fold Induct. (SEAP norm): 17.5478 fold
  Fold induct. (SEAP): 8.8 fold
p21 minimal promoter; Table 4, P21m-SEAP 2 μg DNA (total DNA 2.1 μg)
  SEAP (10 min): 795345
p21 minimal promoter; Table 4, P21m-SEAP 2 μg DNA
  SEAP activity normalised to total protein: 441858.3
  Fold Induct. (SEAP norm): 15.3076 fold
  Fold induct. (SEAP): 9.8 fold
p21 minimal promoter; Table 5, TSA 300 nM, P21m-SEAP 0 μg DNA (total DNA 2.1 μg)
  SEAP (10 min): 2133
p21 minimal promoter; Table 5, TSA 300 nM, P21m-SEAP 0 μg DNA
  SEAP (fold ind): 1.8 fold
p21 minimal promoter; [1]
  SEAP norm-bckg/RLU norm: 4,740.65
  SEAP (fold ind): 3.3 fold
  SEAP norm.-bckg/RLU norm (fold ind): 10.7 fold
p21 minimal promoter; Table 5, TSA 300 nM, P21m-SEAP 0.1 μg DNA (total DNA 2.1 μg)
  SEAP (10 min): 5661
p21 minimal promoter; [2]
  SEAP norm-bckg/RLU norm: 10,064.04
  SEAP (fold ind): 3.75 fold
  SEAP norm.-bckg/RLU norm (fold ind): 16.4 fold
p21 minimal promoter; Table 5, TSA 300 nM, P21m-SEAP 0.2 μg DNA (total DNA 2.1 μg)
  SEAP (10 min): 10279
p21 minimal promoter; [3]
  SEAP norm-bckg/RLU norm: 24,280.99
  SEAP (fold ind): 6.25 fold
  SEAP norm.-bckg/RLU norm (fold ind): 17.9 fold
p21 minimal promoter; Table 5, TSA 300 nM, P21m-SEAP 0.5 μg DNA (total DNA 2.1 μg)
  SEAP (10 min): 16014
p21 minimal promoter; [4]
  SEAP norm-bckg/RLU norm: 68,122.56
  SEAP (fold ind): 6.8 fold
  SEAP norm.-bckg/RLU norm (fold ind): 16.9 fold
p21 minimal promoter; Table 5, TSA 300 nM, P21m-SEAP 1 μg DNA (total DNA 2.1 μg)
  SEAP (10 min): 48928
p21 minimal promoter; Table 5, TSA 300 nM, P21m-SEAP 2 μg DNA
  SEAP norm-bckg/RLU norm: 219,589.86
